# Assay results published in paper PMC5693604 (Cell chemical biology, 2017).
# Columns and labels:
# Assay type in all cases: cell-based
# CHEK2 [1] = biological target: T1, CHEK2 (Homo sapiens, UniProt O96017); assay: competitive gel-based ABPP with probe […] in HEK293T cells
# [2] = biological target: T2, NT5DC1 (5'-Nucleotidase-Domain Containing 1) (Homo sapiens, UniProt Q5TFE4); assay: as above
# T2 sequence (Q5TFE4 1-455): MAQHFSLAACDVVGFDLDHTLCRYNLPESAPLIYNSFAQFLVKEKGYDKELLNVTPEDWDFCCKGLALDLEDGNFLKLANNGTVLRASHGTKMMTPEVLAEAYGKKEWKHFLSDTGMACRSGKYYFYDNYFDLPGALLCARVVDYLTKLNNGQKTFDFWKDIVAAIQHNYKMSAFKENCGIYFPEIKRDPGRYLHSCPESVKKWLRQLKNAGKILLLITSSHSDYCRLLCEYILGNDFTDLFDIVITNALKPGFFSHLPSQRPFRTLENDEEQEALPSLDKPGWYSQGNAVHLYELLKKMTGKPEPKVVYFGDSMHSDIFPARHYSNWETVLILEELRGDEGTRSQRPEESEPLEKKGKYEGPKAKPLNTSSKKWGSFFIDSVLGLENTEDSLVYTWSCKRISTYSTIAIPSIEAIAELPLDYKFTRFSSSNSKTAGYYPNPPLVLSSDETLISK
# CHEK2 [3] = biological target: T1, CHEK2; assay: FRET Z'-LYTE kinase assay
# T1 sequence (O96017 whole entry): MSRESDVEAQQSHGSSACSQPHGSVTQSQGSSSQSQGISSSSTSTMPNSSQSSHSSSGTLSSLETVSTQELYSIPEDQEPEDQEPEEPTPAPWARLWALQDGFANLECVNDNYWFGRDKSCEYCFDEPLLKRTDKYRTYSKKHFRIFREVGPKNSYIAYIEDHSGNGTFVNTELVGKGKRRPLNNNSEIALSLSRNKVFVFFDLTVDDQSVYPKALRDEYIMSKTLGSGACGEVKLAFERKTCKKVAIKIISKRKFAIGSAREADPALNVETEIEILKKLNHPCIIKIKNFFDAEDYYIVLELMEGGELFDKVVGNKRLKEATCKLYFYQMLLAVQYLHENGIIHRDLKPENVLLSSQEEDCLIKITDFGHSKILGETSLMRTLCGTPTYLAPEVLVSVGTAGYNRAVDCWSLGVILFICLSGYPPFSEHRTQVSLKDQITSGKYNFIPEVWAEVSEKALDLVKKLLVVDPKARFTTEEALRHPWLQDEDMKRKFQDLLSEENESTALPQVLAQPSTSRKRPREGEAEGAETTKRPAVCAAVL
SMILES,IC50 (CHEK2 [1]) [nM],IC50 [2] [nM],IC50 (CHEK2 [3]) [nM]
"C=CC(=O)N[C@@H]1CN(c2nc(Nc3cn(C)nc3OC)c3ncn(C)c3n2)C[C@H]1F [compound 2, N-((3R,4R)-4-Fluoro-1-(6-((3-methoxy-1-methyl-1H-pyrazol-4-yl)amino)-9-methyl-9H-purin-2-yl)pyrrolidine-3-yl)acrylamide]",~4000,,
"C=CC(=O)Nc1cccc(Nc2nc(Nc3ccc(N4CCN(C(C)=O)CC4)cc3OC)ncc2C(F)(F)F)c1 [compound 3, rociletinib]",,~360,350
